These results are taken from patent publication US20060045891A1, “Density-matched suspension vehicles and pharmaceutical suspensions” (priority 2004, published 2006).

The data set in a line: Suspension of spheres: sphere placed in the vehicle and centrifuged. The following applies: Lucite sphere density 1.20 g/cc; two minutes at 1000 rpm; no calcium carbonate particles. It is filed as physicochemical. An excerpt:
Precipitated calcium carbonate particles (density 2.71 g/cc and average particle size 0.7 microns) were mixed with Vitamin E (density 0.95 g/cc) at a particle weight fraction of 0.333 (15% by volume of dense particles) to create a suspending vehicle. According to equation (1), the density of the suspending vehicle is 1.21 g/cc.
A small Delrin sphere (density 1.35 g/cc, 3/32″ diameter) was placed in a first container holding the suspending vehicle.
A Lucite sphere (density 1.20 g/cc, 3/32″ diameter) was placed in a second container holding the suspending vehicle and centrifuged at 2000 rpm for 2 minutes.
In contrast, the Lucite sphere was placed in a third container of pure Vitamin E only and centrifuged for two minutes at 1000 rpm.

Take Vitamin E: the “behaviour of Lucite sphere in the vehicle after centrifuging” value is listed as “sank to the bottom of the container in less than one minute”.
